Where a SMILES comes first, the peptide text is derived from it. [ ]: non-standard residue; d: D form. The star is where a group is joined. AllylGly = C=CC[C@H](N)C(=O)O; Boc = CC(C)(C)OC(=O)*; NHBn = c1ccc(CN*)cc1; NHtBu = CC(C)(C)N*; ClAc = O=C(CCl)*

The values below come from paper PMC8457654 (European Journal of Medicinal Chemistry, 2021).

One assay deals with SARS-CoV-2 PL^pro (Severe acute respiratory syndrome coronavirus 2, UniProt P0DTD1). The assay is described as follows: PL^pro enzymatic assay. In kind it is biochemical.
In assay [1] the test system is SARS-CoV-2 UC-1075 strain. The assay can be described thus: SARS-CoV-2 antiviral assay in Vero cells, strain UC-1075. Type of assay: cell-based. The note with it: Severe acute respiratory syndrome coronavirus 2, UC1075, Vero, 120 h, read-out: Antiviral activity EC50 UC-1075 #1 strain Vero cells.
The test system of another assay is cytomegalovirus. The assay is described as follows: Antiviral activity over Vero cells infected with CMV. In kind it is cell-based. The note with it: data not shown.
A further assay deals with varicella zoster virus. The assay is described as follows: Antiviral activity over Vero cells infected with VZV. Type of assay: cell-based. The note with it: data not shown.
Assay [2] concerns SARS-CoV-2 UC-1074 strain. The assay is described as follows: SARS-CoV-2 antiviral assay in Vero cells, strain UC-1074. The note with it: over two different SARS-CoV-2 strains as worded. Type of assay: cell-based.

A word on the IC50: it is the concentration that gives 50% inhibition. Regarding `CC(C)(C)NC(=O)[C@H](Cc1c[nH]c2ccccc12)NC(=O)[C@@H]1CCCN1C(=O)OC(C)(C)C` [Compound 7, tert-butyl 2-((1-(tert-butylamino)-3-(1H-indol-3-yl)-1-oxopropan-2-yl)carbamoyl)pyrrolidine-1-carboxylate] (Boc-Pro-Trp-NHtBu), the half-inhibitory concentration (IC50) on SARS-CoV-2 PL^pro was > 25 µM.
On the same count and under the same terms, to `CC(C)(C)NC(=O)[C@H](Cc1c[nH]c2ccccc12)NC(=O)[C@H](Cc1ccccc1)NCc1ccc(-c2ccccc2)cc1` [Compound 22, (S)-2-(([1,1′-biphenyl]-4-ylmethyl)amino)-N-((S)-1-(tert-butylamino)-3-(1H-indol-3-yl)-1-oxopropan-2-yl)-3-phenylpropanamide] belongs > 25 µM.
For the molecule `CC(C)C[C@H](NCc1ccc(-c2ccccc2)cc1)C(=O)N[C@@H](Cc1c[nH]c2ccccc12)C(=O)NC(C)(C)C` [Compound 23, 2-(([1,1′-biphenyl]-4-ylmethyl)amino)-N-(1-(tert-butylamino)-3-(1H-indol-3-yl)-1-oxopropan-2-yl)-4-methylpentanamide], the IC50 against SARS-CoV-2 PL^pro was > 25 µM.
`C#CC[C@H](NCc1ccc(-c2ccccc2)cc1)C(=O)N[C@@H](Cc1c[nH]c2ccccc12)C(=O)NC(C)(C)C` [Compound 24, (S)-2-(([1,1′-biphenyl]-4-ylmethyl)amino)-N-((S)-1-(tert-butylamino)-3-(1H-indol-3-yl)-1-oxopropan-2-yl)pent-4-ynamide]: on SARS-CoV-2 PL^pro, the IC50 was > 25 µM.
For orientation: EC50 means the concentration needed to bring the measured effect to its halfway point. For the molecule `CC(C)C[C@H](NCc1ccc(-c2ccccc2)cc1)C(=O)N[C@@H](Cc1c[nH]c2ccccc12)C(=O)NCc1ccccc1` [Compound 25, (S)-2-(([1,1′-biphenyl]-4-ylmethyl)amino)-N-((S)-1-(benzylamino)-3-(1H-indol-3-yl)-1-oxopropan-2-yl)-4-methylpentanamide], the IC50 at SARS-CoV-2 PL^pro is > 25 µM. For the same molecule, the EC50 in assay [1] was > 20 µM.
Take `C=CC[C@H](NCc1ccccc1)C(=O)N[C@@H](Cc1c[nH]c2ccccc12)C(=O)NCc1ccc(-c2ccccc2)cc1` [Compound 26, (S)–N-((S)-1-(([1,1′-biphenyl]-4-ylmethyl)amino)-3-(1H-indol-3-yl)-1-oxopropan-2-yl)-2-(benzylamino)pent-4-enamide]: the IC50 at SARS-CoV-2 PL^pro is > 25 µM.
For the molecule `C#CC[C@H](NCc1ccccc1)C(=O)N[C@@H](Cc1c[nH]c2ccccc12)C(=O)NCc1ccc(-c2ccccc2)cc1` [Compound 27, (S)–N-((S)-1-(([1,1′-biphenyl]-4-ylmethyl)amino)-3-(1H-indol-3-yl)-1-oxopropan-2-yl)-2-(benzylamino)pent-4-ynamide], the IC50 at SARS-CoV-2 PL^pro was > 25 µM. The “Antiviral effect over cytomegalovirus” value in the assay on cytomegalovirus is “no effects”. Moreover, the “Antiviral effect over varicella zoster virus” value with varicella zoster virus is listed as “no effects”.
For the molecule `C#CC[C@H](NCCC)C(=O)N[C@@H](Cc1c[nH]c2ccccc12)C(=O)NCc1ccc(-c2ccccc2)cc1` [Compound 28, (S)–N-((S)-1-(([1,1′-biphenyl]-4-ylmethyl)amino)-3-(1H-indol-3-yl)-1-oxopropan-2-yl)-2-(propylamino)pent-4-ynamide], at SARS-CoV-2 PL^pro, the IC50 is > 25 µM.
In the case of `C=CC[C@H](NC(=O)CCl)C(=O)N[C@@H](Cc1c[nH]c2ccccc12)C(=O)NCc1ccccc1` [Compound 29, (S)–N-((S)-1-(benzylamino)-3-(1H-indol-3-yl)-1-oxopropan-2-yl)-2-(2-chloroacetamido)pent-4-enamide] (ClAc-[AllylGly]-Trp-NHBn), the “Antiviral effect over cytomegalovirus” value in the assay with cytomegalovirus was “no effects”. In the assay with varicella zoster virus, the “Antiviral effect over varicella zoster virus” value was “no effects”. For the same molecule, the “Cellular antiviral potency relative to compound 27 (fold higher)” value in assay [2] was determined as 28 fold.
For the molecule `C#CC[C@H](NC(=O)OC(C)(C)C)C(=O)N(Cc1ccccc1)Cc1cn(C)c2ccc(C(=O)OC)cc12` [Compound 35, (S)-Methyl 3-((N-benzyl-2-((tert-butoxycarbonyl)amino)pent-4-ynamido)methyl)-1-methyl-1H-indole-5-carboxylate], the half-inhibitory concentration (IC50) against SARS-CoV-2 PL^pro was > 25 µM.
